Eight compounds from patent US5631394A, “Pharmaceutically active ceramide-related compounds” (The Liposome Company, Inc., priority 1995, dated 1997) can be followed below.

Common to all, as to type: cell-based
Experiment [1] relates to LEWIS LUNG cells. Put plainly: sulforhodamine B cytotoxicity assay, 72 hour drug exposure, Lewis lung. As to conditions: Lewis lung carcinoma. (The SRB assay estimates cell density from bound dye.)
Experiment [2] concerns C3H10T1/2 cells. Put plainly: sulforhodamine B cytotoxicity assay, 72 hour drug exposure, C3H10T1/2. As to conditions: Mus musculus, C3H 10T1/2. The procedure:
(§1) These studies were performed using a sulforrhodamine B assay (see Monks et al., J. Natl. Cancer Inst. (U.S.) 83:757 ([…])). Compounds were dissolved in ethanol. Results from these studies, presented in the following tables, are expressed as Gl50 values, that is, concentration of a drug (micromolar) required to inhibit growth of fifty percent of the cells.

The test system of experiment [3] is RPMI 7666 cells. The experiment can be described thus: sulforhodamine B cytotoxicity assay, 72 hour drug exposure, RPMI 7666. The procedure: as §1
For experiment [4], the system named is A549 cells. Put plainly: sulforhodamine B cytotoxicity assay, 72 hour drug exposure, A549. As to conditions: Homo sapiens.
For experiment [5], the system named is U937 cells. The experiment can be described thus: sulforhodamine B cytotoxicity assay, 72 hour drug exposure, U937. As to conditions: Homo sapiens, U-937. The procedure: as §1
Experiment [6] has as its system MCF7 cells. Put plainly: sulforhodamine B cytotoxicity assay, 72 hour drug exposure, MCF7. As to conditions: Homo sapiens, MCF7, 72 h.
For experiment [7], the system named is CAKI 1 cells. Put plainly: sulforhodamine B cytotoxicity assay, 72 hour drug exposure, CAKI 1. As to conditions: Homo sapiens, CAKI-1, 72 h.
For experiment [8], the system named is A549 cells. The experiment can be described thus: in vitro sensitivity at different drug exposure times, A549. As to conditions: Homo sapiens. The procedure: as §1
In experiment [9] the test system is MCF 7/ADR cells. Put plainly: in vitro sensitivity at different drug exposure times, MCF 7/ADR. As to conditions: Homo sapiens, NCI/ADR-RES. The procedure:
as §1

Experiment [10] has as its system MCF7/ADR cells. The experiment can be described thus: sulforhodamine B cytotoxicity assay, 72 hour drug exposure, MCF7/ADR. As to conditions: Homo sapiens, NCI/ADR-RES, 72 h.
Experiment [11] concerns SKMEL 28 cells. The experiment can be described thus: sulforhodamine B cytotoxicity assay, 72 hour drug exposure, SKMEL 28. As to conditions: Homo sapiens, SK-MEL-28, 72 h.
Experiment [12] deals with OVCAR 3 cells. Put plainly: sulforhodamine B cytotoxicity assay, 72 hour drug exposure, OVCAR 3. As to conditions: Homo sapiens, OVCAR-3, 72 h.
In experiment [13] the test system is HT 29 cells. The experiment can be described thus: sulforhodamine B cytotoxicity assay, 72 hour drug exposure, HT 29. As to conditions: Homo sapiens, HT-29, 72 h.

Bounds are passed on as bounds.

Broadly, the GI50 is the concentration that inhibits growth by half. For the compound `CCCCCCCCCCCCC/C=C/[C@@H](O)[C@H](CO[Si](C)(C)C(C)(C)C)NC(=O)CCCCC` [1-TBDMS C6-Ceramide, 1-TBDMS C6-Cer], the GI50 was greater than 200 µM in [1]; greater than 161 µM in experiment [2]; greater than 200 µM in experiment [3]; greater than 200 µM in experiment [4]; greater than 200 µM in experiment [5].

On to `CCCCCCCCCCCCC/C=C/[C@@H](O)[C@H](CO)NCCCCCCCC`, for which the GI50 amounted to 4.88 ± 0.11 µM in experiment [6]; 5.05 ± 0.02 µM in [1] (72 h); 4.64 ± 0.07 µM in [7]; 31.2 ± 5 µM in experiment [8] (1 hour pulse); 12.8 ± 1 µM in experiment [8] (4 hour pulse); 6.7 ± 0.2 µM in experiment [8] (8 hour pulse). Also, the GI50 in [8] (24 hour pulse) came to 5 ± 0.1 µM; in [8] (48 hour pulse), 4.8 ± 0.1 µM; in experiment [8] (72 hour continuous exposure), 5 µM; in experiment [9] (1 hour pulse), 34.3 ± 4.2 µM; in [9] (4 hour pulse) it was 14.2 ± 1.2 µM; in experiment [9] (8 hour pulse), 8.9 ± 0.2 µM. Moreover, the GI50 in experiment [9] (24 hour pulse) amounted to 4.8 ± 0.1 µM; in experiment [9] (48 hour pulse) it was 4.62 ± 0.1 µM; in experiment [9] (72 hour continuous exposure), 5 ± 0.1 µM; in experiment [10], 4.88 ± 0.04 µM; in experiment [4] (A549, 72 h) it was 4.91 ± 0.01 µM; in experiment [11], 4.96 ± 0.03 µM. The GI50 was 5.41 ± 0.13 µM in experiment [12] and 5.72 ± 0.24 µM in experiment [13].

With `CCCCCCCCCCCCC/C=C/[C@@H](O[Si](C)(C)C(C)(C)C)[C@H](CO)NC(=O)CCCCC` [3-TBDMS C6-Ceramide, 3-TBDMS C6-Cer], the GI50 in experiment [1], in [2], in [3], in experiment [4] and in [5] was greater than 200 µM throughout.

For the compound `CCCCCCCCCCCCCC(O)C(O)[C@@H](O)[C@H](CO)NC(=O)CCCCC` (some centres unmarked) [4,5-Diol C6-Ceramide, 4,5-diol C6-Cer], the GI50 in [6] was 20.7 ± 0.1 µM; in experiment [1] (Mus musculus, 72 h), 15.2 µM; in experiment [10], 28.3 ± 1.1 µM; in experiment [4] (A549, 72 h) it was 25.1 ± 0.3 µM; in experiment [12] it was 38.2 ± 2.3 µM; in experiment [13] it was 14.6 ± 0.4 µM.

Consider `CCCCCCCCCCCCC/C=C/C(=O)[C@H](COC(C)=O)NC(=O)CCCCC` [1-Acetate-3-one C6-Cer, 1-acetate-3-one C6-Cer], for which the GI50 stood at 6.7 ± 0.1 µM in experiment [6]; 14.5 ± 0.1 µM in experiment [1] (72 h); 14.7 ± 0.1 µM in experiment [10]; 14.4 ± 0.1 µM in experiment [4] (A549, 72 h); 15.3 ± 0.1 µM in experiment [12]; 13.9 ± 0.2 µM in [13].

Turning to `CCCCCCCCCCCCC/C=C/[C@@H](O)[C@H](COC(=O)CCC)NC(=O)CCCCC` [1-Butyrate C6-Ceramide, 1-butyrate, C6-ceramide], the GI50 in experiment [6] is 17.9 ± 10 µM; in experiment [1] (72 h), 6.4 ± 2.4 µM; in experiment [8] (1 hour pulse), greater than 100 µM; in [8] (4 hour pulse), 52.9 ± 2.5 µM; in [8] (8 hour pulse), 36.5 ± 0.8 µM; in experiment [8] (24 hour pulse), 8.6 ± 0.6 µM. For the same compound, the GI50 in experiment [8] (48 hour pulse) is 4.7 ± 0.1 µM; in experiment [8] (72 hour continuous exposure) it was 5.5 ± 0.2 µM; in [9] (1 hour pulse) it was greater than 100 µM; in experiment [9] (4 hour pulse) it was 79.1 ± 5.3 µM; in [9] (8 hour pulse), 44 ± 1.1 µM; in [9] (24 hour pulse), 20.8 ± 1.8 µM. Further, the GI50 turned out to be 17.2 ± 0.1 µM in experiment [9] (48 hour pulse); 18.5 ± 0.4 µM in [9] (72 hour continuous exposure); 37.8 ± 8.06 µM in [10]; 6.2 ± 0.4 µM in [4] (A549, 72 h).

Regarding `CCCCCCCCCCCCC/C=C/[C@@H](O)[C@H](CO)NCCCC` [N-C4 Sphingosine, N-C4 sphingosine], the GI50 in experiment [6] came to 4.88 ± 0.03 µM; in experiment [1] (72 h), 5.08 ± 0.13 µM; in experiment [7], 6.88 ± 0.52 µM; in experiment [10] it was 9.6 ± 0.47 µM; in experiment [4] (A549, 72 h), 4.9 ± 0.1 µM; in experiment [11] it was 6.13 ± 1.03 µM. Also, the 50% growth inhibitory concentration (GI50) in experiment [12] was 14.1 ± 0.35 µM; in [13], 6.49 ± 0.11 µM.

Consider `CCCCCCCCCCCCC/C=C/[C@@H](O)[C@H](COC(=O)C(C)C)NC(=O)CCCCC` [1-Isobutyrate C6-Ceramide, 1-isobutyrate, C6-ceramide], for which the GI50 in experiment [8] (1 hour pulse) was greater than 100 µM; in [8] (4 hour pulse), greater than 100 µM; in experiment [8] (8 hour pulse) it was 40.2 ± 2.5 µM; in experiment [8] (24 hour pulse), 8.4 ± 0.7 µM; in experiment [8] (48 hour pulse), 5.2 ± 0.3 µM; in experiment [8] (72 hour continuous exposure), 5.6 ± 0.2 µM. Besides, the 50% growth inhibitory concentration (GI50) in experiment [9] (1 hour pulse) was greater than 100 µM; in experiment [9] (4 hour pulse), greater than 100 µM; in experiment [9] (8 hour pulse), 52.3 ± 1.6 µM; in [9] (24 hour pulse), 22.7 ± 1.1 µM; in experiment [9] (48 hour pulse), 18.7 ± 0.5 µM; in [9] (72 hour continuous exposure) it was 19.6 ± 1 µM. Further, the GI50 in experiment [10] was found to be 37.8 ± 4.67 µM; in experiment [4] (A549, 72 h), 7.9 ± 3.5 µM.
